Assay results reported in patent US6706663B2, “Herbicidal 3-heterocyclic substituted benzisothiazole and benzisoxazole compounds” (Wyeth, priority 2000, dated 2004).

Legend:
[1] = test system: ABUTH (Abutilon theophrasti); experiment: Postemergence herbicidal evaluation; type: in vivo, Medic.; conditions: postemergence
Procedure, shortened: (§1)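 Visual 0–9 injury scores versus control plants, covering stand, vigour, malformation, size, chlorosis and general appearance, taken four to five weeks post-spray and averaged over replicate tests. Plants were sprayed at roughly two weeks old and held on greenhouse benches.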

[2] = test system: AMBEL (Ambrosia artemisifolia); experiment: Postemergence herbicidal evaluation; type: in vivo, L.; conditions: postemergence
Procedure, shortened: as §1

[3] = test system: CASOB (Cassia obtusifolia); experiment: Postemergence herbicidal evaluation; type: in vivo, L.; conditions: postemergence
Procedure, shortened: as §1

[4] = test system: CHEAL (Chenopodium album); experiment: Postemergence herbicidal evaluation; type: in vivo, L.; conditions: postemergence
Procedure, shortened: as §1

GALAP (Galium aparine) [5] = experiment: Postemergence herbicidal evaluation; type: in vivo; conditions: postemergence
Procedure, shortened: as §1

[6] = test system: IPOHE (Ipomoea hederacea); experiment: Postemergence herbicidal evaluation; type: in vivo, (L.) Jacq.; conditions: postemergence
Procedure, shortened: as §1

[7] = test system: ECHCG (Echinochloa crus-galli); experiment: Postemergence herbicidal evaluation; type: in vivo, (L.) Beau; conditions: postemergence
Procedure, shortened: as §1

[8] = test system: GLXMAW (Soybean, Williams); experiment: Postemergence herbicidal evaluation; type: in vivo, Glycine max, (L.) Merr. cv Williams; conditions: postemergence
Procedure, shortened: as §1

ORYSAT (Rice, Tebonnet) [9] = experiment: Postemergence herbicidal evaluation; type: in vivo, Oryza sativa, (L.) Tebonnet; conditions: postemergence
Procedure, shortened: as §1

[10] = test system: TRZAWR (Wheat, Winter, cv Riband); experiment: Postemergence herbicidal evaluation; type: in vivo, Triticum aestivum; conditions: postemergence
Procedure, shortened: as §1

ZEAMX (Corn, Field) [11] = experiment: Postemergence herbicidal evaluation; type: in vivo, Zea mays, L.; conditions: postemergence
Procedure, shortened: as §1

[12] = test system: ABUTH (Abutilon theophrasti); experiment: Preemergence herbicidal evaluation; type: in vivo, Medic.; conditions: preemergence, rated 4-5 weeks after treatment
[13] = test system: AMBEL (Ambrosia artemisifolia); experiment: Preemergence herbicidal evaluation; type: in vivo, L.; conditions: preemergence, rated 4-5 weeks after treatment
Procedure, shortened: (§2)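 Visual 0-9 rating versus untreated control, taken four to five weeks post-treatment, scoring stand, vigor, malformation, size, chlorosis and overall appearance. Compound applied as aqueous acetone spray to freshly seeded soil cups, then kept under standard greenhouse care.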

GALAP (Galium aparine) [14] = experiment: Preemergence herbicidal evaluation; type: in vivo; conditions: preemergence, rated 4-5 weeks after treatment
Procedure, shortened: as §2

[15] = test system: IPOHE (Ipomoea hederacea); experiment: Preemergence herbicidal evaluation; type: in vivo, (L.) Jacq.; conditions: preemergence, rated 4-5 weeks after treatment
[16] = test system: ECHCG (Echinochloa crus-galli); experiment: Preemergence herbicidal evaluation; type: in vivo, (L.) Beau; conditions: preemergence, rated 4-5 weeks after treatment
Procedure, shortened: as §2

GLXMA (Soybean) = experiment: Preemergence herbicidal evaluation; type: in vivo, Glycine max, (L.) Merr.; conditions: preemergence, rated 4-5 weeks after treatment
ZEAMX (Corn, Field) [17] = experiment: Preemergence herbicidal evaluation; type: in vivo, Zea mays, L.; conditions: preemergence, rated 4-5 weeks after treatment
[18] = test system: ECHORC (Echinochloa oryzoides); experiment: Flooded paddy, preemergence weed control; type: in vivo, Echinochloa oryzoides (Ard.) Fritsch.; conditions: rated 3-4 weeks after treatment, 0-9 rating scale
Procedure, shortened: (§3)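 In this preemergence paddy assay, weed seeds or organs are sown at up to 0.5 cm in silt loam and covered by 1.5–3 cm of water for the full test period. After treatment the pots are kept in a greenhouse, and herbicidal effect is rated 0-9 visually against a control.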

CYPIR (Cyperus iria) = experiment: Flooded paddy, preemergence weed control; type: in vivo; conditions: rated 3-4 weeks after treatment, 0-9 rating scale
Procedure, shortened: as §3

[19] = test system: MOOVA (Monochoria vaginalis); experiment: Flooded paddy, preemergence weed control; type: in vivo, Presl.; conditions: rated 3-4 weeks after treatment, 0-9 rating scale
Procedure, shortened: as §3

[20] = test system: SAGPY (Sagittaria pygmaea); experiment: Flooded paddy, preemergence weed control; type: in vivo, L.; conditions: rated 3-4 weeks after treatment, 0-9 rating scale
Procedure, shortened: as §3

ORYSAT (Rice, Tebonnet) [21] = experiment: Flooded paddy, post-transplant rice tolerance; type: in vivo, Oryza sativa, (L.) Tebonnet; conditions: in vivo
Procedure, shortened: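 Visual 0–9 injury rating against a control, covering stand, vigor, malformation, size, chlorosis and overall appearance. Treatment was post-transplant onto flooded containers (water 1.5–3 cm deep, silt loam) holding two ten-day-old cv. Tebonnet seedlings, maintained on greenhouse benches.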

In the case of “1-methyl-3-[3-(4-oxo-delta-2-1,2,5-thiadiazolin-3-yl)-1,2-benzisothiazol-5-yl]-6-(trifluoromethyl)uracil S′,S′-dioxide [Compound 92]”, the ABUTH herbicidal rating ([1]; rate 0.0320 kg/ha) is reported as 6.0, the ABUTH herbicidal rating ([1]; rate 0.0620 kg/ha) is reported as 7.0 and the ABUTH herbicidal rating ([1]; rate 0.1250 kg/ha) is reported as 9.0. The AMBEL herbicidal rating ([2]; rate 0.0320 kg/ha) was 3.0, the AMBEL herbicidal rating ([2]; rate 0.0620 kg/ha) was 5.0 and the AMBEL herbicidal rating ([2]; rate 0.1250 kg/ha) was 6.0. It also gave a CASOB herbicidal rating ([3]; rate 0.0320 kg/ha) of 4.0, a CASOB herbicidal rating ([3]; rate 0.0620 kg/ha) of 5.0 and a CASOB herbicidal rating ([3]; rate 0.1250 kg/ha) of 5.0. It also gave a CHEAL herbicidal rating ([4]; rate 0.0320 kg/ha) of 3.0, a CHEAL herbicidal rating ([4]; rate 0.0620 kg/ha) of 6.0 and a CHEAL herbicidal rating ([4]; rate 0.1250 kg/ha) of 6.0. For the same substance, the GALAP herbicidal rating (GALAP (Galium aparine) [5]; rate 0.0320 kg/ha) was 2.0, the GALAP herbicidal rating (GALAP (Galium aparine) [5]; rate 0.0620 kg/ha) was 3.0 and the GALAP herbicidal rating (GALAP (Galium aparine) [5]; rate 0.1250 kg/ha) was 4.0. It also gave an IPOHE herbicidal rating ([6]; rate 0.0320 kg/ha) of 6.0, an IPOHE herbicidal rating ([6]; rate 0.0620 kg/ha) of 8.0 and an IPOHE herbicidal rating ([6]; rate 0.1250 kg/ha) of 8.0. It also gave an ECHCG herbicidal rating ([7]; rate 0.0320 kg/ha) of 2.0, an ECHCG herbicidal rating ([7]; rate 0.0620 kg/ha) of 3.0 and an ECHCG herbicidal rating ([7]; rate 0.1250 kg/ha) of 4.0. For the same substance, the GLXMAW herbicidal rating ([8]; rate 0.0320 kg/ha) was 5.0, the GLXMAW herbicidal rating ([8]; rate 0.0620 kg/ha) was 5.0 and the GLXMAW herbicidal rating ([8]; rate 0.1250 kg/ha) was 5.5. It also gave an ORYSAT herbicidal rating (ORYSAT (Rice, Tebonnet) [9]; rate 0.0320 kg/ha) of 1.0, an ORYSAT herbicidal rating (ORYSAT (Rice, Tebonnet) [9]; rate 0.0620 kg/ha) of 1.0 and an ORYSAT herbicidal rating (ORYSAT (Rice, Tebonnet) [9]; rate 0.1250 kg/ha) of 1.0. It also gave a TRZAWR herbicidal rating ([10]; rate 0.0320 kg/ha) of 1.0, a TRZAWR herbicidal rating ([10]; rate 0.0620 kg/ha) of 1.5 and a TRZAWR herbicidal rating ([10]; rate 0.1250 kg/ha) of 1.5. The ZEAMX herbicidal rating (ZEAMX (Corn, Field) [11]; rate 0.0320 kg/ha) was 2.0, the ZEAMX herbicidal rating (ZEAMX (Corn, Field) [11]; rate 0.0620 kg/ha) was 2.5 and the ZEAMX herbicidal rating (ZEAMX (Corn, Field) [11]; rate 0.1250 kg/ha) was 3.0. The “Preemergence herbicidal rating ABUTH” value ([12]; rate 0.0620 kg/ha) was 0.0, the “Preemergence herbicidal rating ABUTH” value ([12]; rate 0.1250 kg/ha) was 0.0 and the “Preemergence herbicidal rating ABUTH” value ([12]; rate 0.2500 kg/ha) was 3.0. The “Preemergence herbicidal rating AMBEL” value ([13]; rate 0.0620 kg/ha) was 0.0, the “Preemergence herbicidal rating AMBEL” value ([13]; rate 0.1250 kg/ha) was 0.0 and the “Preemergence herbicidal rating AMBEL” value ([13]; rate 0.2500 kg/ha) was 0.0. The “Preemergence herbicidal rating GALAP” value (GALAP (Galium aparine) [14]; rate 0.0620 kg/ha) was 0.0, the “Preemergence herbicidal rating GALAP” value (GALAP (Galium aparine) [14]; rate 0.1250 kg/ha) was 0.0 and the “Preemergence herbicidal rating GALAP” value (GALAP (Galium aparine) [14]; rate 0.2500 kg/ha) was 2.0. For the same substance, the “Preemergence herbicidal rating IPOHE” value ([15]; rate 0.0620 kg/ha) was 0.0, the “Preemergence herbicidal rating IPOHE” value ([15]; rate 0.1250 kg/ha) was 0.0 and the “Preemergence herbicidal rating IPOHE” value ([15]; rate 0.2500 kg/ha) was 4.0. For the same substance, the “Preemergence herbicidal rating ECHCG” value ([16]; rate 0.0620 kg/ha) was 0.0, the “Preemergence herbicidal rating ECHCG” value ([16]; rate 0.1250 kg/ha) was 0.0 and the “Preemergence herbicidal rating ECHCG” value ([16]; rate 0.2500 kg/ha) was 0.0. The “Preemergence herbicidal rating GLXMA” value (GLXMA (Soybean); rate 0.0620 kg/ha) was 0.0, the “Preemergence herbicidal rating GLXMA” value (GLXMA (Soybean); rate 0.1250 kg/ha) was 0.0 and the “Preemergence herbicidal rating GLXMA” value (GLXMA (Soybean); rate 0.2500 kg/ha) was 0.0. The “Preemergence herbicidal rating ZEAMX” value (ZEAMX (Corn, Field) [17]; rate 0.0620 kg/ha) was 0.0, the “Preemergence herbicidal rating ZEAMX” value (ZEAMX (Corn, Field) [17]; rate 0.1250 kg/ha) was 0.0 and the “Preemergence herbicidal rating ZEAMX” value (ZEAMX (Corn, Field) [17]; rate 0.2500 kg/ha) was 0.0. It also gave an ECHORC herbicidal rating ([18]; rate 0.0320 kg/ha) of 0.0, an ECHORC herbicidal rating ([18]; rate 0.1250 kg/ha) of 0.0 and a CYPIR herbicidal rating (CYPIR (Cyperus iria); rate 0.0320 kg/ha) of 0.0. The CYPIR herbicidal rating (CYPIR (Cyperus iria); rate 0.1250 kg/ha) was 8.0, the MOOVA herbicidal rating ([19]; rate 0.0320 kg/ha) was 0.0 and the MOOVA herbicidal rating ([19]; rate 0.1250 kg/ha) was 8.0. For the same substance, the SAGPY herbicidal rating ([20]; rate 0.0320 kg/ha) was 0.0, the SAGPY herbicidal rating ([20]; rate 0.1250 kg/ha) was 0.0 and the “ORYSAT herbicidal rating (transplanted rice tolerance)” value (ORYSAT (Rice, Tebonnet) [21]) was 0.0.
